Experimental data as given in patent US5366980A, “Use of dextromethorphan and an oxidase inhibitor to treat dermatitis” (priority 1993, dated 1994).
Where “and” joins values, the source holds several entries; their conditions need not be identical. Identical values can stand only once. Entries after “also recorded” stand apart in the source; their conditions may differ. Counter-ions that a name gives are not always drawn.

Columns and labels:
[1] = tested on: debrisoquin hydroxylase (sparteine monooxygenase); details: Inaba et al 1985, cited from earlier work
debrisoquin hydroxylase [2] = assay: Urinary DM/DR ratio with other antioxidants in specific patients (Example 5)
Description: The second method involves sampling body fluids to compare the concentrations of DM and its primary metabolite, dextrorphan (DR). Although blood concentrations can be directly evaluated by drawing blood samples if desired, an easier and painless approach is to analyze urine samples. Blood or urine samples can be processed using methods such as high performance liquid chromatography (HPLC), as described in Example 5. […] The height of each peak, or the area under each peak, will indicate the quantity of each compound in the blood or urine sample. The heights of the DM and DR peaks are then divided, to determine the DM/DR ratio. The ratio which occurs after administration of a candidate antioxidant drug is compared to the DM/DR ratio in the same patient under control conditions (i.e., before administration of any antioxidant).
Preliminary Analysis of Other Antioxidants
To further evaluate that possibility, the Applicant arranged for chemical analyses of urine samples, using HPLC, in the labs of an independent investigator.

debrisoquin hydroxylase [3] = assay: Urinary DM/DR ratio after oral dextromethorphan without and with quinidine (Example 1); format: in vivo, human; details: 150 mg quinidine + 60 mg DM
Procedure: Since the research that led to this invention was done by a neurologist who was initially interested in finding out whether DM might be able to retard the progress of ALS, the initial studies were done on patients suffering from ALS, most of whom are adults more than 50 years old.
Six patients suffering from ALS were administered orally a single 60 mg dextromethorphan dose. Several hours later, a urine sample was collected, and the urine concentrations of dextromethorphan (DM) and dextrorphan (DR) were measured as described below to determine a DM/DR ratio. […] In a different week, 60 mg of DM and 150 mg of quinidine were orally administered to the same patients, and urinary DM and DR levels and DM/DR ratios were determined again.
DM and DR urinary levels without quinidine were determined by adding […] of thebaine as an internal standard to 1 mL of urine. To this was added 2000 units of beta-glucuronidase in 1 mL of acetate buffer (0.1M, pH 5.0). The mixture was incubated for 18 hours at 37° C. and then extracted by adding 1 mL of phosphate buffer (pH 12, 0.10M) and 7 mL of n-butanol/hexane (10:90 v/v). After mixing and centrifugation, the organic layer was transferred to a clean tube and acidified with 400 uL of 0.01 N HCL. 20 microliters (uL) of aqueous phase was injected into a high performance liquid chromatography (HPLC) system. The HPLC used a phenyl column equilibrated with a mobile phase of acetonitrile:water (51:49, v/v) containing 10 mM KHPO4, 10 mM hexane sulfonic acid, pH 4.0 (flow rate 1.2 mL/min). Detection of thebaine, dextromethorphan and dextrorphan was achieved by fluorescence (Kratos FS-980 Fluorometer) with an excitation wavelength of 228 nm and no emission cutoff filter.
A gas chromatograph/mass spectroscopy (gc/ms) assay was employed for determining dextromethorphan and dextrorphan levels in the presence of quinidine. Briefly, 0.5 ml urine samples were spiked with 500 nanograms (ng) of dimethacrine. The urine pH was adjusted to 5.0 with 0.1M acetate buffer (usually about 1.0 ml), and beta-glucuronidase was added (2000 units/ml urine). […]

[4] = Plasma concentration of DM 10-12 hours after oral dosing, without and with quinidine (Examples 2 and 3); format: in vivo, human; details: effect of quinidine on plasma DM, words
Procedure: Plasma Concentrations of DM
Five patients were orally administered 120 mg of DM, with no co-administration of quinidine. Between 10 and 12 hours later, blood was sampled, blood plasma was isolated by centrifugation, and the plasma was analyzed to determine the DM concentration using the thebaine/HPLC method.
During a different week, the same patients were orally administered 60 mg of DM (half the control dosage) and 150 mg of quinidine. Between 10 and 12 hours later, blood was sampled and the plasma was analyzed for DM using thebaine/HPLC.
Additional studies were undertaken using a range of dosages of DM to establish a dose-response curve that correlates the quantity of DM orally administered to a patient with blood plasma concentrations 10 to 12 hours later (determined as described in Example 2). All patients received 150 mg of quinidine daily. The results of those studies are shown in graphical form in FIG. 2, with mean values shown as open squares and standard deviation ranges shown by vertical bars. The ascending line through the median values is a linear approximation; a curve based on more extensive data would probably show a horizontal asymptote.

liver cell preparations = details: Broly et al 1989; cited from earlier work
ALS patients = details: DM up to about 300 mg/day or higher; quinidine in prolonged QT interval; cited from earlier work
sigma receptors = details: reportedly; cited from earlier work
[5] = tested on: N-methyl-D-aspartate (NMDA) receptors; details: reportedly; cited from earlier work
[6] = tested on: neuronal calcium channels; details: reportedly; Carpenter et al 1988; cited from earlier work

Structure (SMILES) | In vitro activity in inhibiting debrisoquin hydroxylase [1] | further results
O=c1[nH]c2ccccc2n1CCCN1CCC(n2c(=O)[nH]c3cc(Cl)ccc32)CC1 [domperidone] | significant in vitro activity | –
C=C[C@H]1C[N@@]2CC[C@H]1C[C@H]2[C@H](O)c1ccnc2ccc(OC)cc12 [quinine] | significant in vitro activity | –
C=C[C@H]1C[N@@]2CC[C@H]1C[C@H]2[C@H](O)c1ccnc2ccc(OC)cc12 [quinine sulfate] | – | DM/DR ratio (antioxidant) (debrisoquin hydroxylase [2]; urine, HPLC, antioxidant in brackets, preliminary, one value per patient): 0.09 and 0.05
CNCCC(Oc1ccc(C(F)(F)F)cc1)c1ccccc1 (stereo not drawn) [fluoxetine] | – | Effect on DM concentrations in the blood / debrisoquin hydroxylase oxidative activity (debrisoquin hydroxylase [2]; ALS patient taking fluoxetine, research by the Applicant): can suppress the oxidative activity of the debrisoquin hydroxylase enzyme, albeit at a potency substantially below that of quinidine; also recorded: effective in increasing DM concentrations in the blood
COc1ccc(Cc2nccc3cc(OC)c(OC)cc23)cc1OC [papaverine] | significant in vitro activity | –
COC(=O)[C@@H]1[C@H]2C[C@H]3c4[nH]c5ccccc5c4CCN3C[C@@H]2CC[C@@H]1O [yohimbine] | significant in vitro activity; also recorded: relatively potent | –
CC[C@H]1[C@@H]2C[C@H]3[C@@H]4N(C)c5ccccc5[C@]45C[C@@H]([C@H]2[C@H]5O)N3[C@@H]1O [ajmaline] | significant in vitro activity; also recorded: relatively potent | –
CN1[C@@H](CC(=O)c2ccccc2)CCC[C@H]1C[C@H](O)c1ccccc1 [lobeline] | significant in vitro activity; also recorded: relatively potent | –
CC(CCc1ccccc1)NCC(O)c1ccc(O)c(C(N)=O)c1 (stereo not drawn) [labetalol] | significant in vitro activity | –
CC(C)NCC(O)COc1cccc2ccccc12 (stereo not drawn) [propranolol] | significant in vitro activity | –
CC(C)(C)NC[C@H](O)COc1nsnc1N1CCOCC1 [timolol] | significant in vitro activity | –
C=C[C@H]1C[N@@]2CC[C@H]1C[C@@H]2[C@@H](O)c1ccnc2ccc(OC)cc12 [quinidine] | most powerful of these inhibitors; also recorded: most potent inhibitor of the sparteine monooxygenase enzyme; also recorded: potent inhibitor of the debrisoquin hydroxylase enzyme | Increase of DM/DR ratio, all test subjects (debrisoquin hydroxylase [3]; all test subjects): at least 2 orders of magnitude; Increase of DM/DR ratio, usually (debrisoquin hydroxylase [3]; usual case): more than 3 orders of magnitude; DM plasma level, with or without quinidine [4]: major increase in the concentration of DM in the blood plasma; also recorded: pronounced effect in increasing and stabilizing the quantity of DM circulating in the blood; also recorded: highly effective in increasing DM concentrations; Ki ([1]; in vitro, read-out: Ki (Michaelis-Menton inhibition)): 60 nM; DM oxidation / metabolism in liver cell preparations (liver cell preparations): suppresses DM oxidation in liver cell preparations; Adverse effects (general knowledge) (ALS patients): cardiac arrest (which can be fatal)
COCCc1ccc(OCC(O)CNC(C)C)cc1 (racemic) [metaprolol] | significant in vitro activity | –
C=CCOc1ccccc1OCC(O)CNC(C)C (stereo not drawn) [oxprenolol] | significant in vitro activity | –
O=C(CCCN1CCC(O)(c2ccc(Cl)cc2)CC1)c1ccc(F)cc1 [haloperidol] | significant in vitro activity; also recorded: relatively potent | –
Cc1cccc(C)c1OCC(C)N (stereo not drawn) [mexiletine] | significant in vitro activity | –
CNCCC=C1c2ccccc2CCc2ccccc21 [nortriptyline] | significant in vitro activity | –
NC(=O)C1(N2CCCCC2)CCN(CCCC(=O)c2ccc(F)cc2)CC1 [pipamperone] | significant in vitro activity; also recorded: relatively potent | –
CN1CC[C@@]23CCCC[C@@H]2[C@@H]1Cc1ccc(O)cc13 [dextrorphan] | – | Activity at sigma receptors (sigma receptors): sigma agonists; Activity at NMDA receptors [5]: NMDA antagonists; Activity at neuronal calcium channels [6]: calcium channel antagonists
